Numbering of substitutions follows the chain as printed. Names and notes keep the numbering of the source.
What was measured:
C. thiooxydans homolog [1] = test system: T1, C. thiooxydans homolog; assay: HPLC hydrolysis assay, initial velocities, substrate inhibition model fit; format: biochemical, Comamonas thiooxydans; settings: substrate inhibition constant
T1 construct: gene MHETase homolog; Gly179 at the position of MHETase Ser131
From the text: HPLC hydrolysis assay, initial velocities, substrate inhibition model fit on C. thiooxydans homolog | MHETase and both homologs also display this behavior

C. thiooxydans homolog [2] = test system: T2, C. thiooxydans homolog; settings: substrate inhibition model
T2 construct: gene MHETase homolog

MHETase [3] = target: T3, MHETase (Pseudideonella sakaiensis, UniProt A0A0K8P8E7); assay: HPLC hydrolysis assay, initial velocities, substrate inhibition model fit; format: biochemical; set-up: gene ISF6_0224; pET21b(+)-based expression in E. coli, purified; residue borders and tags only in SI; catalytic triad Ser225, Asp492, His528; settings: substrate inhibition constant
T3 sequence (A0A0K8P8E7 18-603 limits assumed): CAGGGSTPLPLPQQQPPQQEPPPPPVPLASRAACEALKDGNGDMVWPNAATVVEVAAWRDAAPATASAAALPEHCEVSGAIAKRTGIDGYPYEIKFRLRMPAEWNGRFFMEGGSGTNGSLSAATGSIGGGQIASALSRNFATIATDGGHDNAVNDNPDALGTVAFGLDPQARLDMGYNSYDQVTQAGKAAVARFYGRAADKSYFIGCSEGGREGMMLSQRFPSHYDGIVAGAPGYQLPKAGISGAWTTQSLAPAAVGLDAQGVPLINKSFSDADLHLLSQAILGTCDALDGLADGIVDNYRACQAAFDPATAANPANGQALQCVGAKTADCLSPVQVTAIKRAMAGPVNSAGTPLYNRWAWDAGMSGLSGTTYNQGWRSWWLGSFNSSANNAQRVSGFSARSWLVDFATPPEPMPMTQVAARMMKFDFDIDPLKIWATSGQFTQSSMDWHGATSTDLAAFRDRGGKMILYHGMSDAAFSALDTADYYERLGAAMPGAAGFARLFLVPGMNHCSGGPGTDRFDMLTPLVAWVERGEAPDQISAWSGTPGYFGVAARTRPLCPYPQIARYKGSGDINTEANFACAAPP
From the text: HPLC hydrolysis assay, initial velocities, substrate inhibition model fit on MHETase | MHETase is also the most susceptible to substrate inhibition with a Kk value of […]

MHETase [4] = target: T3, MHETase; assay: X-ray crystallography, […] Å; format: binding; set-up: gene ISF6_0224; pET21b(+)-based expression in E. coli, purified; residue borders and tags only in SI; catalytic triad Ser225, Asp492, His528; settings: active site; fully occupied in 6QZ3, partially occupied in 6QZ1
[5] = substrate: O=C(O)c1ccc(C(=O)OCCO)cc1; assay: HPLC hydrolysis assay, initial velocities, simple Michaelis-Menten fit; format: biochemical, Pseudideonella sakaiensis; settings: simple Michaelis-Menten model
From the text: HPLC hydrolysis assay, initial velocities, simple Michaelis-Menten fit on MHETase | The S131G mutant has a Km value approximately eightfold higher than that of wild-type MHETase

Molecule `O=C(O)c1ccc(C(=O)OCCO)cc1` [MHET] has a Kk (C. thiooxydans homolog [1]) of 78.80 ± 3.04 µM, a Km (C. thiooxydans homolog [2]) of 175 ± 4.75 µM and a Kk (MHETase [3]) of 307.30 ± 20.65 µM.

`O=C(O)c1ccccc1` [benzoate] was tested, and the “X-ray crystallography, 1.6 Å” value (MHETase [4]) was “one structure with a fully occupied benzoic acid ligand (6QZ3)”.

B1: MHETase (Pseudideonella sakaiensis; S131G) (protein)
chain: T3 sequence (A0A0K8P8E7 18-603 limits assumed) with S114G
notes: pET21b(+)-based expression in E. coli, purified; residue borders and tags only in SI; catalytic triad Ser225, Asp492, His528
Work on B1 yielded a Km [5] of 184.10 ± 3.50 µM.

From article PMC7568301, “Characterization and engineering of a two-enzyme system for plastics depolymerization” (Proceedings of the National Academy of Sciences of the …, 2020)
